Results reported in patent US10286034B2, “Uses of bremelanotide in therapy for female sexual dysfunction” (Palatin Technologies, Inc., priority 2012, dated 2019).

Columns and labels:
Assay type in all cases: in vivo, human
[1] = test system: premenopausal females with FSAD and/or HSDD; assay: Example 1: placebo-controlled at-home trial of subcutaneous bremelanotide, efficacy (SSEs, FSFI, FSDS-DAO)
Experimental: A multi-centered, placebo-controlled, randomized, parallel group trial with fixed dose levels and designed to identify appropriate doses of bremelanotide administered by subcutaneous injection in premenopausal females with FSAD and/or HSDD, under the conditions of home use, was conducted. […] Subjects who continued to qualify for the trial then received 2 single in-clinic doses of randomized treatment (double-blind; approximately one week apart), followed by 12 weeks of double-blind treatment at home (subjects self-administered treatment as needed). Subjects were randomized (1:1:1:1) to one of four study treatment groups (placebo or doses with 0.75, 1.25, or 1.75 mg net weight bremelanotide). Randomization occurred immediately prior to the first in-clinic dose of double-blind treatment. Study drug and placebo was provided as pre-filled syringes in 0.3 mL volume, with subjects instructed on self-administration into the anterior thigh or abdomen. Enrolled subjects were premenopausal women who met the diagnostic criteria for […], or mixed […], utilizing a diagnostic screening guide including categorization of the sexual dysfunction as both acquired (vs. lifelong) and generalized (vs. situational). Subjects enrolled had previously been sexually “functional;” that is, experienced sexual arousal during sexual activity and/or a normal level of desire at some point in the past for a period of at least 2 years. […] Enrolled subjects were provided with an electronic diary system (eDiary) with instructions to complete an FSEP-R questionnaire with each sexual encounter. At selected in-clinic visits, subjects completed other assessment questionnaires, including […]-DAO, […] and WITS-9. In addition, various vital sign measures were conducted and blood and urine samples collected at selected in-clinic visits. […] The measurement period was defined as the number of events during the last four weeks of treatment minus the number of events during the baseline period, with outcomes reported for pooled results of women taking the two highest bremelanotide dose levels versus placebo. […] The FSFI is a 19-item questionnaire which provides for an additional measurement of changes over a longer recall period. • FSFI total score improvement (mean change of 3.55 vs. 1.88, p=0.0017) • Reduced associated distress related to sexual dysfunction, as measured by the Female Sexual Distress Scale-DAO (FSDS-DAO). The FSDS-DAO 15-item questionnaire is designed to assess and quantify the change in personal distress associated with […]-DAO total score improvement (mean change of -11.1 vs. -6.8, p=0.036).

[2] = Example 1: adverse events and discontinuations during double-blind treatment
Experimental: A multi-centered, placebo-controlled, randomized, parallel group trial with fixed dose levels and designed to identify appropriate doses of bremelanotide administered by subcutaneous injection in premenopausal females with FSAD and/or HSDD, under the conditions of home use, was conducted. Subjects received a single dose of placebo (subject-blinded) in-clinic followed by 4 weeks of subject-blinded placebo treatment at home (subjects self-administered treatment as needed). Subjects who continued to qualify for the trial then received 2 single in-clinic doses of randomized treatment (double-blind; approximately one week apart), followed by 12 weeks of double-blind treatment at home (subjects self-administered treatment as needed).
Randomization occurred immediately prior to the first in-clinic dose of double-blind treatment. Study drug and placebo was provided as pre-filled syringes in 0.3 mL volume, with subjects instructed on self-administration into the anterior thigh or abdomen.

[3] = Adverse events with single-dose SC administration (Trials -14, -06, -10)
Experimental: Subcutaneous dosing was tested in 5 Phase 1 trials (3 in females, 2 in males) and one Phase 2 trial (males). The most common adverse events associated with single-dose SC bremelanotide administration (Trials −14, −06, and −10) were somnolence (30%), flushing (15%), nausea (19%), and vomiting (10%).

[4] = Subcutaneous trials in males: vomiting and tolerability; details: for subjects experiencing vomiting (mild or moderate): males
[5] = pooled 1.25 mg and 1.75 mg doses, baseline to end of study

CCCC[C@H](NC(C)=O)C(=O)N[C@H]1CC(=O)NCCCC[C@@H](C(=O)O)NC(=O)[C@H](Cc2c[nH]c3ccccc23)NC(=O)[C@H](CCCNC(=N)N)NC(=O)[C@@H](Cc2ccccc2)NC(=O)[C@H](Cc2c[nH]cn2)NC1=O [bremelanotide, Ac-Nle-cyclo(-Asp-His-D-Phe-Arg-Trp-Lys)-OH]
efficacy on all key endpoints in HSDD-only and mixed HSDD/FSAD subgroups ([1]; 1.25 mg, 1.75 mg, and/or 1.25/1.75 mg pooled, exploratory analyses): statistically significant efficacy or a clinically significant trend versus placebo | Satisfying Sexual Events (SSEs), mean at baseline ([1]; pooled 1.25 mg and 1.75 mg doses): 1.6 | FSDS-DAO total score improvement, mean change [1, 5]: −11.1 | FSFI total score improvement, mean change [1, 5]: 3.55 | increase in SSEs [1, 5]: 50% | Satisfying Sexual Events (SSEs), mean at end of study ([1]; pooled 1.25 mg and 1.75 mg doses, last four weeks of treatment): 2.4 | most optimal dose for efficacy ([1]; subcutaneous): 1.75 mg | women with end-of-study FSFI and FSDS-DAO total score levels above 26.5 and 18 ([1]; versus placebo, exploratory analysis): higher percentage of women | patients discontinued based on adverse events ([2]; 0.75 mg): 2 | patients discontinued based on preset blood pressure change criterion ([2]; 0.75 mg): 4 | Any adverse event leading to withdrawal, number of subjects ([2]; 0.75 mg SC (N = 100)): 2 | Any adverse event leading to withdrawal, percent of subjects ([2]; 0.75 mg SC (N = 100)): (2%) | Any adverse event, number of subjects ([2]; 0.75 mg SC (N = 100)): 64 | Any adverse event, percent of subjects ([2]; 0.75 mg SC (N = 100)): (64%) | Flushing leading to withdrawal, number of subjects ([2]; 0.75 mg SC (N = 100)): 0 | Flushing, number of subjects ([2]; 0.75 mg SC (N = 100)): 17 | Flushing, percent of subjects ([2]; 0.75 mg SC (N = 100)): (17%) | Headache, number of subjects ([2]; 0.75 mg SC (N = 100)): 9 | Headache, percent of subjects ([2]; 0.75 mg SC (N = 100)): (9%) | Hypertension leading to withdrawal, number of subjects ([2]; 0.75 mg SC (N = 100)): 2 | Hypertension leading to withdrawal, percent of subjects ([2]; 0.75 mg SC (N = 100)): (2%) | Injection-site pain, number of subjects ([2]; 0.75 mg SC (N = 100)): 6 | Injection-site pain, percent of subjects ([2]; 0.75 mg SC (N = 100)): (6%) | Injection-site pruritus, number of subjects ([2]; 0.75 mg SC (N = 100)): 4 | Injection-site pruritus, percent of subjects ([2]; 0.75 mg SC (N = 100)): (4%) | Nausea leading to withdrawal, number of subjects ([2]; 0.75 mg SC (N = 100)): 0 | Nausea, number of subjects ([2]; 0.75 mg SC (N = 100)): 18 | Nausea, percent of subjects ([2]; 0.75 mg SC (N = 100)): (18%) | Upper respiratory tract infection, number of subjects ([2]; 0.75 mg SC (N = 100)): 8 | Upper respiratory tract infection, percent of subjects ([2]; 0.75 mg SC (N = 100)): (8%) | Vomiting leading to withdrawal, number of subjects ([2]; 0.75 mg SC (N = 100)): 0 | patients discontinued based on adverse events ([2]; 1.25 mg): 4 | patients discontinued based on preset blood pressure change criterion ([2]; 1.25 mg): 9 | Any adverse event leading to withdrawal, number of subjects ([2]; 1.25 mg SC (N = 99)): 4 | Any adverse event leading to withdrawal, percent of subjects ([2]; 1.25 mg SC (N = 99)): (4%) | Any adverse event, number of subjects ([2]; 1.25 mg SC (N = 99)): 61 | Any adverse event, percent of subjects ([2]; 1.25 mg SC (N = 99)): (62%) | Flushing leading to withdrawal, number of subjects ([2]; 1.25 mg SC (N = 99)): 1 | Flushing leading to withdrawal, percent of subjects ([2]; 1.25 mg SC (N = 99)): (1%) | Flushing, number of subjects ([2]; 1.25 mg SC (N = 99)): 14 | Flushing, percent of subjects ([2]; 1.25 mg SC (N = 99)): (14%) | Headache, number of subjects ([2]; 1.25 mg SC (N = 99)): 9 | Headache, percent of subjects ([2]; 1.25 mg SC (N = 99)): (9%) | Hypertension leading to withdrawal, number of subjects ([2]; 1.25 mg SC (N = 99)): 0 | Injection-site pain, number of subjects ([2]; 1.25 mg SC (N = 99)): 6 | Injection-site pain, percent of subjects ([2]; 1.25 mg SC (N = 99)): (6%) | Injection-site pruritus, number of subjects ([2]; 1.25 mg SC (N = 99)): 4 | Injection-site pruritus, percent of subjects ([2]; 1.25 mg SC (N = 99)): (4%) | Nausea leading to withdrawal, number of subjects ([2]; 1.25 mg SC (N = 99)): 0 | Nausea, number of subjects ([2]; 1.25 mg SC (N = 99)): 22 | Nausea, percent of subjects ([2]; 1.25 mg SC (N = 99)): (22%) | Upper respiratory tract infection, number of subjects ([2]; 1.25 mg SC (N = 99)): 5 | Upper respiratory tract infection, percent of subjects ([2]; 1.25 mg SC (N = 99)): (5%) | Vomiting leading to withdrawal, number of subjects ([2]; 1.25 mg SC (N = 99)): 1 | Vomiting leading to withdrawal, percent of subjects ([2]; 1.25 mg SC (N = 99)): (1%) | patients discontinued based on adverse events ([2]; 1.75 mg): 8 | patients discontinued based on preset blood pressure change criterion ([2]; 1.75 mg): 7 | Any adverse event leading to withdrawal, number of subjects ([2]; 1.75 mg SC (N = 98)): 8 | Any adverse event leading to withdrawal, percent of subjects ([2]; 1.75 mg SC (N = 98)): (8%) | Any adverse event, number of subjects ([2]; 1.75 mg SC (N = 98)): 67 | Any adverse event, percent of subjects ([2]; 1.75 mg SC (N = 98)): (68%) | Flushing leading to withdrawal, number of subjects ([2]; 1.75 mg SC (N = 98)): 1 | Flushing leading to withdrawal, percent of subjects ([2]; 1.75 mg SC (N = 98)): (1%) | Flushing, number of subjects ([2]; 1.75 mg SC (N = 98)): 17 | Flushing, percent of subjects ([2]; 1.75 mg SC (N = 98)): (17%) | Headache, number of subjects ([2]; 1.75 mg SC (N = 98)): 14 | Headache, percent of subjects ([2]; 1.75 mg SC (N = 98)): (14%) | Hypertension leading to withdrawal, number of subjects ([2]; 1.75 mg SC (N = 98)): 1 | Hypertension leading to withdrawal, percent of subjects ([2]; 1.75 mg SC (N = 98)): (1%) | Injection-site pain, number of subjects ([2]; 1.75 mg SC (N = 98)): 7 | Injection-site pain, percent of subjects ([2]; 1.75 mg SC (N = 98)): (7%) | Injection-site pruritus, number of subjects ([2]; 1.75 mg SC (N = 98)): 6 | Injection-site pruritus, percent of subjects ([2]; 1.75 mg SC (N = 98)): (6%) | Nausea leading to withdrawal, number of subjects ([2]; 1.75 mg SC (N = 98)): 3 | Nausea leading to withdrawal, percent of subjects ([2]; 1.75 mg SC (N = 98)): (3%) | Nausea, number of subjects ([2]; 1.75 mg SC (N = 98)): 24 | Nausea, percent of subjects ([2]; 1.75 mg SC (N = 98)): (24%) | Upper respiratory tract infection, number of subjects ([2]; 1.75 mg SC (N = 98)): 4 | Upper respiratory tract infection, percent of subjects ([2]; 1.75 mg SC (N = 98)): (4%) | Vomiting leading to withdrawal, number of subjects ([2]; 1.75 mg SC (N = 98)): 3 | Vomiting leading to withdrawal, percent of subjects ([2]; 1.75 mg SC (N = 98)): (3%) | subjects discontinuing due to an adverse event ([2]; 1.75 mg subcutaneous dose): 8% | tolerability during the trial ([2]; 0.75-1.75 mg SC): well-tolerated | serious adverse events considered related to treatment ([2]; of 7 serious adverse events): none | flushing incidence [3]: 15% | nausea incidence [3]: 19% | somnolence incidence [3]: 30% | vomiting incidence [3]: 10% | subjects experiencing vomiting (mild or moderate) ([4]; 7.5 mg dose level): 1 of 6 | subjects experiencing vomiting (mild or moderate) ([4]; 5-mg dose level): 1 of 6 | subjects experiencing vomiting (mild or moderate) ([4]; 10-mg dose level): 3 of 6 | tolerability ([4]; single subcutaneous doses of 4 and 6 mg, male subjects with ED and preexisting hypertension): improved tolerability
